Test systems include ACHN; DU-145; EKVX; HCC 2998; HCT-116; HOP-92; HT-29; KM12; MCF7; NCI-H226; NCI-H460; OVCAR-3; OVCAR-5; SF-295; SF-539; SK-MEL-5; SNB-75; SR; TK-10; UACC-257.
What all share (assay): NCI tumour cell line growth inhibition, 48 h

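Briefly, cells in 96-well plates were exposed to five compound concentrations for 48 h, and endpoints were estimated by linear interpolation. GI50 = concentration required for 50% inhibition of growth.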 The source made the active and inactive calls. No stated cut-off is given here; in the data, active = GI50 up to about 1.1 µM and inactive = higher. Where only a bound is given, the exact number is not on record here.

As to `Cc1ccc(S(=O)(=O)NC(=O)Nc2nnc(S(N)(=O)=O)s2)cc1`, the GI50 in the test with ACHN, in the test with DU-145, with EKVX, in the test on HCC 2998, with HCT-116 and with HOP-92 was > 100 µM (inactive) throughout. The GI50 in the test on HT-29, with KM12, in the test on MCF7, in the test with NCI-H226, with NCI-H460 and in the test on OVCAR-3 was > 100 µM (inactive) each time. In addition, the GI50 with OVCAR-5, with SF-295, with SF-539, in the test with SK-MEL-5, with SNB-75 and in the test on SR was > 100 µM (inactive) each time. In addition, the GI50 with TK-10 is > 100 µM (inactive).

Consider `N#CC12CNCC1CN=N2` (stereo not drawn), for which the GI50 in the test with ACHN, in the test with DU-145, in the test with EKVX, in the test on HCC 2998, with HCT-116 and in the test with HOP-92 was > 100 µM (inactive) each time. Besides, the GI50 with HT-29, in the test with KM12, in the test on MCF7, with NCI-H226, in the test with NCI-H460 and with OVCAR-3 was > 100 µM (inactive) in each case. Besides, the GI50 with OVCAR-5, with SF-295, with SK-MEL-5, in the test on SNB-75, in the test on SR and in the test on TK-10 was > 100 µM (inactive) in each case. Besides, in the test with UACC-257, the GI50 is > 100 µM (inactive).

Turning to `CCN(CCCl)c1cc(CN(C)C)cc(NC(=O)C23CCC(C(=O)Nc4cc(CN(C)C)cc(N(CC)CCCl)c4)(CC2)CC3)c1`, the GI50 with ACHN was 2.22 µM (inactive); with DU-145, 0.804 µM (active); in the test on HCC 2998, 1.33 µM (inactive); with HCT-116, 1.11 µM (active); in the test with HOP-92, 1.43 µM (inactive); in the test on HT-29 it was 0.229 µM (active). Besides, the GI50 in the test with KM12 is 1.67 µM (inactive); with MCF7, 0.0255 µM (active); in the test with NCI-H226 it was 1.4 µM (inactive); in the test with NCI-H460, 0.0687 µM (active); with OVCAR-5 it was 1.5 µM (inactive); with SF-295 it was 1.59 µM (inactive). The GI50 in the test on SF-539 is 0.443 µM (active); with SK-MEL-5 it was 1.75 µM (inactive); with SNB-75, 1.01 µM (active); in the test on SR it was 0.0329 µM (active); in the test with TK-10, 8.49 µM (inactive); with UACC-257 it was 3.96 µM (inactive).

Consider `O=C1OC2C(O)C(=O)OC2C1O` (stereo not drawn), for which the GI50 with ACHN, in the test on DU-145, in the test with EKVX, with HCC 2998, in the test with HCT-116 and with HOP-92 was > 100 µM (inactive) each time. The GI50 with HT-29, in the test with KM12, with MCF7, in the test with NCI-H226, in the test with NCI-H460 and in the test on OVCAR-3 was > 100 µM (inactive) throughout. In addition, the GI50 in the test on OVCAR-5 was > 100 µM (inactive); in the test with SF-295, > 100 µM (inactive); in the test on SF-539, > 100 µM (inactive); with SK-MEL-5, > 100 µM (inactive); with SNB-75, 95.3 µM (inactive); in the test on SR, > 100 µM (inactive). In the test with UACC-257, the GI50 was > 100 µM (inactive).

For the compound `COc1ccc(C[C@@H]2CN(C(=O)c3ccccc3)[C@H](Cc3ccc(O)cc3)CN2C(=O)c2ccccc2)cc1Br`, the GI50 with ACHN, with DU-145, with EKVX, with HCC 2998, in the test with HCT-116 and with HOP-92 was > 100 µM (inactive) in each case. Besides, the GI50 with HT-29, in the test on KM12, in the test with MCF7, with NCI-H226, in the test with NCI-H460 and in the test with OVCAR-3 was > 100 µM (inactive) throughout. Also, the GI50 in the test with OVCAR-5 was > 100 µM (inactive); with SF-295 it was > 100 µM (inactive); with SF-539, > 100 µM (inactive); in the test with SNB-75 it was > 100 µM (inactive); in the test with SR, 88.3 µM (inactive); in the test with TK-10 it was > 100 µM (inactive). Besides, the GI50 in the test with UACC-257 was > 100 µM (inactive).

As for `C=CC(C)(C)C(=C)C(=O)N(C)c1ccccc1I`, the GI50 in the test with ACHN was > 100 µM (inactive); with DU-145 it was > 100 µM (inactive); with EKVX it was > 100 µM (inactive); with HCC 2998 it was > 100 µM (inactive); in the test on HCT-116, 84.9 µM (inactive); in the test on HOP-92, > 100 µM (inactive). Also, the GI50 is > 100 µM (inactive) with HT-29; > 100 µM (inactive) with KM12; > 100 µM (inactive) with MCF7; 95.7 µM (inactive) in the test on NCI-H226; > 100 µM (inactive) in the test with NCI-H460; > 100 µM (inactive) in the test on OVCAR-3. Further, the GI50 is > 100 µM (inactive) with OVCAR-5; > 100 µM (inactive) in the test on SF-295; 72.8 µM (inactive) with SK-MEL-5; > 100 µM (inactive) with SNB-75; > 100 µM (inactive) with SR; > 100 µM (inactive) with TK-10. For the same compound, the GI50 in the test with UACC-257 is > 100 µM (inactive).

Turning to `CCOC(=O)Cn1nnc2cc(Nc3nc4ccccc4nc3C(=O)OCC)ccc21`, the GI50 was > 100 µM (inactive) in the test on ACHN; > 100 µM (inactive) in the test with DU-145; 33.7 µM (inactive) in the test with EKVX; > 100 µM (inactive) in the test with HCC 2998; > 100 µM (inactive) with HCT-116; 20.9 µM (inactive) in the test on HOP-92. Moreover, the GI50 in the test on HT-29, in the test with KM12, in the test with MCF7, in the test with NCI-H226, with NCI-H460 and in the test with OVCAR-3 was > 100 µM (inactive) in each case. For the same compound, the GI50 in the test with OVCAR-5 was > 100 µM (inactive); in the test with SF-295, 26.4 µM (inactive); in the test with SF-539, 17.3 µM (inactive); in the test with SK-MEL-5 it was > 100 µM (inactive); with SNB-75, 4.21 µM (inactive); with SR it was > 100 µM (inactive). Moreover, the GI50 with TK-10 is 22.5 µM (inactive); with UACC-257, > 100 µM (inactive).

As for `O=C1CSC2(CC(/C=C/c3ccccc3O)=NN2c2cccc(S(=O)(=O)O)c2)N1c1nc2ccccc2s1` (stereo not drawn), the GI50 was 32.1 µM (inactive) in the test on ACHN; 30.5 µM (inactive) with DU-145; 48.1 µM (inactive) in the test with EKVX; 21.9 µM (inactive) with HCC 2998; 38.3 µM (inactive) in the test on HCT-116; 25.6 µM (inactive) in the test on HOP-92. Moreover, the GI50 was 45.4 µM (inactive) in the test with HT-29; 30.6 µM (inactive) in the test on KM12; 34.3 µM (inactive) with MCF7; 22.2 µM (inactive) in the test with NCI-H226; 34.1 µM (inactive) in the test with NCI-H460; 26.9 µM (inactive) in the test with OVCAR-5. Besides, the GI50 in the test with SF-539 is 16.3 µM (inactive); in the test with SK-MEL-5, 25.9 µM (inactive); with SNB-75 it was 90.8 µM (inactive); in the test on SR it was 18.4 µM (inactive); in the test with TK-10, 20 µM (inactive); with UACC-257, 41.7 µM (inactive).

On to `CC(=O)OC1C[C@@H](C)C2(C[C@H](O)c3ccoc3)C(=O)OC[C@]13C2CCC(O)C31CO1` (stereo partly drawn), for which the GI50 with ACHN, in the test with DU-145, in the test with HCC 2998, with HCT-116, in the test on HOP-92 and in the test with HT-29 was > 100 µM (inactive) each time. For the same compound, the GI50 in the test on KM12, in the test on MCF7, with NCI-H226, with NCI-H460, in the test with OVCAR-3 and with OVCAR-5 was > 100 µM (inactive) each time. For the same compound, the GI50 with SF-295, in the test with SF-539, with SK-MEL-5, in the test on SNB-75, in the test on SR and in the test on TK-10 was > 100 µM (inactive) throughout. In the test on UACC-257, the GI50 is > 100 µM (inactive).

Turning to `CCOc1ccc(NCc2cc(OC)c(OC)c(OC)c2)cc1`, the GI50 in the test on ACHN is 6.15 µM (inactive); in the test on DU-145 it was 3.15 µM (inactive); with EKVX, 17.5 µM (inactive); in the test on HCC 2998, 0.9 µM (active); in the test with HCT-116, 0.533 µM (active); in the test with HOP-92, 6.04 µM (inactive). The GI50 with HT-29 was 0.407 µM (active); with KM12, 0.319 µM (active); in the test on MCF7 it was 0.455 µM (active); in the test with NCI-H226, 11.3 µM (inactive); in the test on NCI-H460, 0.614 µM (active); with OVCAR-3, 0.388 µM (active). Further, the GI50 with SF-295 is 0.417 µM (active); in the test with SF-539 it was 0.562 µM (active); in the test on SK-MEL-5 it was 0.578 µM (active); in the test on SNB-75 it was 1.96 µM (inactive); in the test on SR, 0.288 µM (active); in the test on UACC-257, 19.7 µM (inactive).
